Results published in patent US20250345334A1, “METHODS OF TREATING PROSTATE CANCER” (The University of Chicago, priority 2024, published 2025).
Entries after “also recorded” stand apart in the source; their conditions may differ.

Columns and labels:
NCI-H660 cells [1] = settings: 6 days
NCI-H660 cells [2] = test: cells; settings: Homo sapiens, NCI-H660, 144 h, read-out: % cell viability relative to 10 nM HC treatment
CWRR1-Ctl cells [3] = test: Proliferation assay, Incucyte S3 live imaging of nuclear GFP, SOX2-positive CWRR1-Ctl cells; format: cell-based, human; settings: 10% CSS supplemented with R-1881, 150 h (~6 days)
CWRR1-SOX2KO cells = test: Proliferation assay, Incucyte S3 live imaging of nuclear GFP, CWRR1-SOX2KO cells; format: cell-based, human; settings: 10% CSS supplemented with R-1881, 150 h
[4] = tested on: CDK1, pCDK1, pHistone H3 and cleaved PARP in CWRR1-Ctl cells; test: Western blotting in CWRR1-Ctl cells; format: cell-based, human; settings: Western blot
[5] = tested on: CWRR1-Ctl xenograft tumors; test: CRPC xenograft model, time to 4x tumor volume; format: in vivo, athymic nude mice; settings: 10 mg/kg ENZ, 50 mg/kg MK-1775, daily for 30 days; for median time to endpoint (4x tumor volume relative to volume at randomization): censored at day 31
Experimental: To strengthen the correlation between in vitro and […] studies thereby enhancing translational relevance, an in vivo experiment using a CRPC xenograft model was performed. Following inoculation with CWRR1-Ctl cells, tumor bearing athymic nude mice with a measured tumor volume of ˜150-200 mm^3 were randomized into 4 treatment arms: Vehicle (N=5), 10 mg/kg ENZ (N=8), 50 mg/kg MK-1775 (N=8), and 10 mg/kg ENZ+50 mg/kg MK-1775 (N=8). Mice were treated daily for a period of 30 days. Endpoint for this study was defined as time to 4× tumor volume relative to volume at randomization, representing a lethal tumor burden. Mice who had not reached endpoint at 30 days of treatment were censored at day 31. […] Median time to endpoint for vehicle-, ENZ- and WEE1i-treated mice was 21, 29.5 and 29.5 days, respectively, compared to ENZ+WEE1i-treated mice, which was not reached, as 75% of mice remained without defined progression at 31 days (FIG. 4D).

CWRR1-Ctl cells [6] = test: Propidium iodide staining, cell cycle status; format: cell-based, human; settings: 10 μM ENZ, 0.8 μM MK-1775, 6 days
Experimental: FIGS. 5A-5C. […] (FIG. 5A) Western blotting in CWRR1-Ctl cells cultured in 10% CSS supplemented with R-1881 and treated with: Vehicle (R; 3.5 μM R-1881), and AR-inhibited conditions ([…] R/10 μM ENZ)+/−0.8 μM MK-1775 (WEE1 inhibition) comparing phosphorylated Histone H3 (indicator of cells in M phase) and cleaved PARP (indicator of apoptosis). 3-Actin was blotted as a loading control. […] (FIG. 5C) β-galactosidase activity in CWRR1-Ctl cells treated with either 10 μM ENZ or 10 μM ENZ in combination with 0.8 μM MK-1775 for 6 days. […] Error bars for propidium iodide staining and β-galactosidase activity data represent +/−SEM of 6 replicates tested in each condition, respectively.
WEE1 plays a central role in negatively regulating mitotic phase entry (i.e. the G2/M checkpoint) through phosphorylation of CDK1 [29]. […] PARP-1 is a known substrate of caspase-mediated apoptotic cell death, and cleaved PARP (c-PARP) is a hallmark of apoptosis.

[7] = tested on: E2F1, WEE1, CDK1 and p57 in SOX2KO cells; test: Western blotting in CWRR1-SOX2KO cells; format: cell-based, human; settings: Western blot
Experimental: FIGS. 1A-1D. RNA-seq in Control (Ctl) and -SOX2Ko Cells. Ctl or SOX2^KO cells were cultured in 10% charcoal-stripped media with vehicle (R-1881) or ENZ for 72 hrs, then total RNA was recovered for RNA-seq. […] (FIG. 1B) Top gene set pathways enriched by KEGG using Web Gestalt for unique, differentially expressed genes in SOX2^KO cells following ENZ treatment relative to vehicle. Pathways are ranked by strength of significance (P-value). (FIG. 1C) Normalized counts from RNA-seq of representative cell cycle-related genes (CDK1, E2F1, WEE1, CDKN2A, TGFB1, and CDKN1C) across treatment conditions for Ctl and SOX2^KO cells are graphed. Error bars for normalized count data represent +/−SEM for triplicate samples in each condition. Asterisks represent significant differences with the following adjusted p-values: **1E-03 to 1E-09, ***1.0E-10 to 1.0E-19, ****[…] 1.0E-20. (FIG. 1D) Western blots in Ctl and SOX2^KO cells treated with (3.5 μM R-1881) vehicle or ENZ ([…]) for SOX2 and cell cycle proteins encoded by highlighted genes: WEE1, E2F1, CDK1, and p57, confirm relative expression levels observed by RNA-seq. j-Actin was blotted as a loading control. […]

[8] = tested on: CDK1, pCDK1 and pHistone H3 in NCI-H660 cells; test: Western blotting in NCI-H660 cells; format: cell-based, human; settings: Western blot

Structure (SMILES): Cn1cc(S(=O)(=O)N2CCC3=Cc4c(cnn4-c4ccc(F)cc4)C[C@]3(C(=O)c3cc(C(F)(F)F)ccn3)C2)cn1 [CORT134, relacorilant]
- cell viability relative to control (NCI-H660 cells [1]): minimal differences
- viability at 1 µM (NCI-H660 cells [2]): 91.8%

Structure (SMILES): C[C@@H]1C[C@H]2[C@@H]3CCC4=CC(=O)C=C[C@]4(C)[C@@]3(F)[C@@H](O)C[C@]2(C)[C@@]1(O)C(=O)CO [DEX, dexamethasone]
- viability at 0.1 µM (NCI-H660 cells [2]): 105%

Structure (SMILES): CNC(=O)c1ccc(N2C(=S)N(c3ccc(C#N)c(C(F)(F)F)c3)C(=O)C2(C)C)cc1F [ENZ, enzalutamide]
- proliferative capacity relative to vehicle (CWRR1-Ctl cells [3]): no effect; also recorded: little effect
- proliferative capacity compared to vehicle (CWRR1-SOX2KO cells): significantly lower
- phosphorylated Histone H3 (pHistone H3) [4]: low
- time to endpoint relative to vehicle [5]: no significant differences
- median time to endpoint (4x tumor volume relative to volume at randomization) [5]: 29.5 days
- % cells at G2/M cell cycle phase (CWRR1-Ctl cells [6]): 11.95%
- E2F1, WEE1 and CDK1 expression levels ([7]; SOX2KO cells upon AR inhibition): notably lower
- p57 expression ([7]; SOX2KO cells with AR antagonism): highest expression

Structure (SMILES): C=CCn1c(=O)c2cnc(Nc3ccc(N4CCN(C)CC4)cc3)nc2n1-c1cccc(C(C)(C)O)n1 [MK-1775]
- proliferative capacity relative to vehicle (CWRR1-Ctl cells [3]): no significant difference
- cleaved PARP (c-PARP) [4]: increased
- phosphorylated Histone H3 (pHistone H3) [4]: increases appreciably
- pCDK1 protein expression ([4]; when WEE1i was present): markedly lower
- time to endpoint relative to vehicle [5]: no significant differences
- median time to endpoint (4x tumor volume relative to volume at randomization) [5]: 29.5 days
- pHistone H3 relative to DEX and CORT134 treatment alone [8]: increased
